From BindingDB's records for doi:10.1021/jm100984y (The University of Queensland, 2010)
pEC50: −log10 of the molar value.

Biological target: T1, Proteinase-activated receptor 2 (Homo sapiens, UniProt P55085)
T1 sequence (P55085 whole entry): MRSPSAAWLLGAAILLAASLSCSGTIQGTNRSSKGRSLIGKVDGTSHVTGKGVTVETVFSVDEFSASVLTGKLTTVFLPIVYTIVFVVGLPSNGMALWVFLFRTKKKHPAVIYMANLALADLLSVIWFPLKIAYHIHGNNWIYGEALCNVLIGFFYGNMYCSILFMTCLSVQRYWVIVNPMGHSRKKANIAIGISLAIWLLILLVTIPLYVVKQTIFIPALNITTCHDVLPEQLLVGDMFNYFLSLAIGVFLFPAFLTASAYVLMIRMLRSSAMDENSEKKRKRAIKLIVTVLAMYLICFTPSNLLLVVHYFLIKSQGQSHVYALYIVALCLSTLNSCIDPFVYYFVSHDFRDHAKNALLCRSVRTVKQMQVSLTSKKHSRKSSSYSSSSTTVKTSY
Test: Agonist activity at PAR2 receptor in human HT-29 cells assessed as induction of intracellular calcium release

`CC[C@H](C)[C@H](NC(=O)[C@H](CC1CCCCC1)NC(=O)c1ccno1)C(=O)Nc1ccc(CC(=O)N2CCC(CN)CC2)cc1` [5-Isoxazoyl-Cha-Ile-4-aminophenyl-(4-[aminomethyl]piperidin-1-yl)ethan-2-one] showed a pEC50 of 6.50.
